Literature values in US9192591B2, “Method and composition for treating alzheimer-type dementia” (priority 2008, dated 2015).

Columns and labels:
[1] = system: patients with dementias of the Alzheimer type; conditions: donepezil 5-10 mg per day; rivastigmine 1-4 and 6-12 mg per day; galantamine 8-32 mg per day
[2] = system: patients with Alzheimer's disease treated with tacrine; conditions: propantheline 7.5 mg to 15 mg four times a day
[3] = system: patients with Alzheimer's disease; conditions: skin patches replacing immediate release tablets

| SMILES | benefits on cognitive and global measures relevant to dementia [1] | effect on peripheral cholinergic gastrointestinal side effects of tacrine (cramping, nausea, vomiting, diarrhea) [2] | patients who discontinued because of vomiting (patients; compared to less than 1% on placebo) | patients in whom weight declined (patients; during rivastigmine therapy) [%] | patients reporting loss of appetite (patients; in vivo) [%] | patients who become nauseated (patients; oral 6-12 mg/day) | patients who vomit at least once (patients; oral 6-12 mg/day) | patients with mild or moderate vomiting (patients; rivastigmine-treated patients) [%] | patients with severe vomiting (patients; rivastigmine-treated patients) [%] | amount of cognitive improvement and side effects on doubling the dose [3] |
| --- | --- | --- | --- | --- | --- | --- | --- | --- | --- | --- |
| COc1cc2c(cc1OC)C(=O)C(CC1CCN(Cc3ccccc3)CC1)C2 (racemic) [donepezil, (±)-2,3-dihydro-5,6-dimethoxy-2-[[1-(phenylmethyl)-4-piperidinyl]methyl]-1H-inden-1-one] | small, but statistically significant, benefits | – | – | – | – | – | – | – | – | – |
| CC(C)[N+](C)(CCOC(=O)C1c2ccccc2Oc2ccccc21)C(C)C [propantheline] | – | ameliorated | – | – | – | – | – | – | – | – |
| CCN(C)C(=O)Oc1cccc([C@H](C)N(C)C)c1 [rivastigmine, (S)—N-Ethyl-N-methyl-3-[1-(dimethylamino)ethyl]-phenyl carbamate] | small, but statistically significant, benefits | – | Five | 25 | 17 | About half | about one-third | 14 | 2 | significantly increased the amount of cognitive improvement in patients with Alzheimer's disease without increasing side effects |
